The nature of data set [1]: hydrophobicity (chrom LogD7.4) and property forecast index (PFI). It counts as physicochemical. Particulars: for PFI: PFI = chrom LogD7.4 + #Ar; for chromatographic logD: pH 7.4, chromatographic. As to the method:
(§1) Potency was determined against BRD4-BD1 using FRET binding, with this being treated as a surrogate of BRD4 activity given the homology between BD1 and BD2 across the BET proteins. , PFI is calculated from hydrophobicity plus aromatic ring count (chromatographic (chrom) logD7.4 + #Ar), with this metric being indicative of developability, or likelihood of progression to a drug candidate. PFI was used to assess the physicochemical profile of compounds, with a target of PFI < 7 as risks for several parameters, including solubility, are increased above this upper limit. Our objective was to develop a BET inhibitor with high potency and favorable physicochemical properties, as determined using PFI and LipE to guide compound optimization.
(§2) hydrophobicity (chrom LogD7.4), solubility (CAD), permeability (PAMPA)
(§3) and metabolic stability (CLint) have all been described previously.1

The target of data set [2] is T1, BRD4-BD1 (Homo sapiens, UniProt O60885). As to the kind of experiment: lipophilic efficiency (LipE = pIC50 – cLogP). As to conditions: predicted using Data Warrior. From the text: The final BET inhibitor discussed is BMS-986158 (4) (Figure ).
For data set [3], the target named is T1, BRD4-BD1. As to the kind of experiment: BRD4-BD1 FRET binding. Particulars: for pIC50 ± SD: n = 4. As to the method: as §1
The nature of data set [4]: parallel artificial membrane permeability assay (PAMPA). It counts as in vitro ADME. Here is the method:
Additionally, the in vitro permeability of these compounds was determined by a parallel artificial membrane permeability assay (PAMPA). […] This would be protonated at physiological pH and decrease the overall affinity of the compound toward the hydrophobic membrane region.
as §2, §3

For data set [5], the system named is BRD4. Particulars: BRD4, fluorescence polarization; cited from earlier work. (In general: Fluorescence polarisation rises when a labelled molecule tumbles more slowly, as on binding a larger partner.)
The test system of a further data set is c-Myc expression. Particulars: advanced malignancies such as AML; cited from earlier work.
The next data set has as its system tumor cell. As to conditions: advanced malignancies such as AML; cited from earlier work.
The conditions of data set [6]: Phase I studies; cited from earlier work.
Data set [7] relates to BRD4. Particulars: BRD4, AlphaScreen; cited from earlier work. Background: In Alpha technology, singlet oxygen from a donor bead excites a nearby acceptor bead.
The conditions of data set [8]: cited from earlier work.
The subject of data set [9] is BRD4. As to conditions: BRD4, FRET binding; cited from earlier work.
For data set [10], the system named is panel of human lung cancer cell lines. As to conditions: reported; cited from earlier work.
In data set [11] the test system is BRD4. Particulars: binding to BRD4, reported; cited from earlier work.
The next data set deals with BRD2. As to conditions: binding to BRD2, reported; cited from earlier work.
The test system of the next data set is BRD3. As to conditions: binding to BRD3, reported; cited from earlier work.
Data set [12] in a line: kinetic solubility by CAD. It counts as physicochemical. Particulars: n = 1. Here is the method: (§4) For both enantiomers, kinetic solubility, permeability and metabolic stability data, the latter measured by in vitro microsomal intrinsic clearance (CLint) in rats and humans, was collected (Table ). , Docking of 44 and 45 into the BRD4-BD1 binding pocket was also carried out (Figures S3–4).
as §2, §3

Data set [13] in a line: in vitro metabolic stability in rat liver microsomes (CLint). It counts as in vitro ADME, rats. Particulars: n = 1. Here is the method: as §4, §2, §3
Background: Microsomes from liver hold many membrane-bound enzymes, among them those of drug oxidation.

A short description of data set [14]: in vitro metabolic stability in human liver microsomes (CLint). It counts as in vitro ADME, humans. Particulars: n = 1. Here is the method:
as §4, §2, §3

The mark [15] stands for this setting: BRD4-BD1, values for 29, 30, 40.
The mark [16] stands for this setting: BRD4-BD1, FRET binding, n = 2, enantiomers.

SMILES strings stand for the structures. ≈ marks a conversion by molar mass, not a printed value. Where “and” joins values, the source holds several entries; their conditions need not be identical. Identical values can stand only once. Like-named read-outs stand apart in the source and are kept apart here.

By pIC50 is commonly meant −log10 of the IC50, conventionally taken in molar units. By Papp is commonly meant a coefficient for how fast a substance crosses the barrier. The term half-life denotes the time in which the quantity being followed falls by half. For orientation: IC50 means the midpoint of a concentration-inhibition curve. What is called chromatographic logD is a lipophilicity value derived from retention on a column. Read a high chromatographic logD as higher lipophilicity. The term Solubility denotes the dissolved amount per volume that the medium holds. Usually microsomal CLint stands for the rate of metabolic loss divided by the concentration. High values mean faster metabolism, low ones greater metabolic stability.

`Cc1noc(C)c1-c1ccc2c3nnc(NCCO)nc3n(C(c3ccccn3)C3CCNCC3)c2c1` (stereo not drawn) [Compound 29]: in data set [1], the PFI was 6.74 and < 7. Besides, on BRD4-BD1 [2], the LipE is on record as 4.23. This compound also yielded a negative logarithm of the IC50 (pIC50) at BRD4-BD1 [3] (setting [15]) of 7.29 ± 0.06. In addition, in data set [4], the Papp is less than 0.3 ×10⁻⁶ cm/s.
With `COc1cc2c(cc1-c1c(C)noc1C)ncc1[nH]c(=O)n([C@H](C)c3ccccn3)c12` [Compound 2, I-BET151], the pIC50 with BRD4 [5] is reported as 6.10. For the same compound, the c-Myc expression entry with c-Myc expression was “effectively downregulate”. Moreover, in the data set on tumor cell, the tumor cell proliferation entry is listed as “inhibit tumor cell proliferation”. Besides, the cardiotoxicity entry in data set [6] was “exhibited cardiotoxicity”.
For the compound `Cc1sc2c(c1C)C(c1ccc(Cl)cc1)=N[C@@H](CC(=O)OC(C)(C)C)c1nnc(C)n1-2` [Compound 1, JQ1], in the data set with BRD4 [7], the pIC50 is reported as 7.10. For the same compound, in the data set with c-Myc expression, the c-Myc expression result is recorded as “effectively downregulate”. For the same compound, in the data set with tumor cell, the tumor cell proliferation result is on record as “inhibit tumor cell proliferation”. In data set [8], the half-life is listed as 1 h and the oral bioavailability result is recorded as “low”.
As to `COCCNc1nnc2c3ccc(-c4c(C)noc4C)cc3n(C(c3ccccc3)C3CCNCC3)c2n1` (stereo not drawn) [Compound 27], in data set [1], the PFI stood at 7.96. The LipE on BRD4-BD1 [2] is on record as 3.20. On BRD4-BD1 [3] (BRD4-BD1, FRET binding), the “pIC50 ± SD” value was found to be 7.63 ± 0.05.
The like results for `COCCNc1nnc2c(n1)[nH]c1ccc(-c3c(C)noc3C)cc12` [Compound 5b] were, in that order, 6.78, 3.82 and 5.64 ± 0.05.
The like results for `COCCNc1nnc2c3cc(-c4c(C)noc4C)ccc3n(C(c3ccccc3)C3CCOCC3)c2n1` (stereo not drawn) [Compound 23] were, in that order, 10.7, 1.75 and 6.33 ± 0.03.
The like results for `COCCNc1nnc2c3ccc(-c4c(C)noc4C)cc3n(Cc3ccc(F)cc3)c2n1` [Compound 13a] were, in that order, 10.7, 3.93 and 7.34 ± 0.04.
For `COCCNc1nnc2c3cc(-c4c(C)noc4C)ccc3n(Cc3ccc(F)cc3)c2n1` [Compound 13b], in data set [1], the PFI is reported as 10.8. The LipE on BRD4-BD1 [2] is on record as 2.77. Also, on BRD4-BD1 [3] (BRD4-BD1, FRET binding), the “pIC50 ± SD” value worked out at 6.18 ± 0.05.
`COCCNc1nnc2c3ccc(-c4c(C)nnn4C)cc3n(C(c3ccccn3)C3CCNCC3)c2n1` (stereo not drawn) [Compound 30]: in [1], the PFI was 6.46 and < 7. Moreover, the LipE on BRD4-BD1 [2] was 4.93. For the same compound, the pIC50 on BRD4-BD1 [3] (setting [15]) is 7.41 ± 0.03. The Papp in data set [4] was less than 0.3 ×10⁻⁶ cm/s.
As for `COCCNc1nnc2c(n1)[nH]c1cc(-c3c(C)noc3C)ccc12` [Compound 5a], the PFI in [1] was determined as 6.83. The LipE at BRD4-BD1 [2] is listed as 4.39. On BRD4-BD1 [3] (BRD4-BD1, FRET binding), the “pIC50 ± SD” value came to 6.22 ± 0.05.
As to `CCS(=O)(=O)Nc1ccc(Oc2ccc(F)cc2F)c(-c2cn(C)c(=O)c3[nH]ccc23)c1` [Compound 3, N-(4-(2,4-Difluorophenoxy)-3-(6-methyl-7-oxo-6,7-dihydro-1H-pyrrolo[2,3-c]pyridin-4-yl)phenyl)ethanesulfonamide], in the data set with BRD4 [9], the pIC50 is 8.82. The c-Myc expression result in the data set on c-Myc expression is recorded as “effectively downregulate”. In the data set on tumor cell, the tumor cell proliferation entry was “inhibit tumor cell proliferation”.
Consider `Cc1nnn(C)c1-c1cnc2c3ccc(C(C)(C)O)cc3n([C@@H](c3ccccc3)C3CCOCC3)c2c1` (stereo in doubt) [Compound 4, BMS-986158, reference compound], for which the cytotoxicity entry in [10] was “potent cytotoxicity”. Further, the IC50 is 1.1 nM in the data set with BRD4 [11], 0.8 nM in the data set with BRD2 and 1.4 nM in the data set on BRD3. In [1], the PFI is given as 9.08. In data set [1], this compound came in with a chromatographic logD of 4.08. The LipE on BRD4-BD1 [2] is listed as 3.51. Further, in [4], the Papp came to 49.8 ×10⁻⁶ cm/s. This compound registered a Solubility in data set [12] of 109 µg/mL (≈ 220 µM).
Turning to `COCCNc1nnc2c3ccc(-c4c(C)noc4C)cc3n(C(c3ccccn3)C3CCNCC3)c2n1` (stereo not drawn) [Compound 28], in [1], the PFI is 7.37. The LipE on BRD4-BD1 [2] is 4.25. Further, at BRD4-BD1 [3] (BRD4-BD1, FRET binding), the “pIC50 ± SD” value is 7.74 ± 0.12.
For `Cc1nnn(C)c1-c1ccc2c3nnc(NCCO)nc3n([C@@H](c3ccccn3)C3CCOCC3)c2c1` (single isomer, unassigned) [Compound 44], in [1], the PFI is given as 7.14 and the chromatographic logD turned out to be 2.14. For the same compound, the LipE at BRD4-BD1 [2] is given as 6.16. For the same compound, the pIC50 at BRD4-BD1 [3] (setting [16]) is recorded as 8.35 ± 0.01. Also, the Papp in data set [4] was found to be 7.78 ×10⁻⁶ cm/s. Also, in data set [13], the intrinsic clearance (microsomal CLint) is less than 10 µL/min/mg. The compound also had a microsomal CLint in [14] of less than 10 µL/min/mg. In addition, the Solubility in data set [12] is 134 µg/mL (≈ 268 µM).
Turning to `COCCNc1nnc2c3ccc(-c4c(C)noc4C)cc3n(C(c3ccccn3)C3CCOCC3)c2n1` (stereo not drawn) [Compound 24], in data set [1], the PFI is 9.74. Also, on BRD4-BD1 [2], the LipE is reported as 4.38. Besides, on BRD4-BD1 [3] (BRD4-BD1, FRET binding), the “pIC50 ± SD” value is 8.01 ± 0.11.
The like results for `COCCNc1nnc2c3ccc(-c4c(C)noc4C)cc3n(Cc3ccccc3)c2n1` [Compound 12a] were, in that order, 10.6, 4.22 and 7.53 ± 0.12.
As to `COCCNc1nnc2c3ccc(-c4c(C)noc4C)cc3n(C(c3ccccc3)C3CCOCC3)c2n1` (stereo not drawn) [Compound 22], the PFI in [1] stood at 10.6. Besides, the LipE at BRD4-BD1 [2] is given as 3.69. At BRD4-BD1 [3] (BRD4-BD1, FRET binding), the “pIC50 ± SD” value is given as 8.27 ± 0.31.
Take `Cc1nnn(C)c1-c1ccc2c3nnc(NCCO)nc3n([C@H](c3ccccn3)C3CCOCC3)c2c1` (single isomer, unassigned) [Compound 45]: in [1], the PFI came to 7.14. Further, the LipE at BRD4-BD1 [2] is given as 5.83. The pIC50 at BRD4-BD1 [3] (setting [16]) is recorded as 8.02 ± 0.08. The same compound displayed a Papp in data set [4] of 9.36 ×10⁻⁶ cm/s. Further, the microsomal CLint in data set [13] and in data set [14] was less than 10 µL/min/mg in each case. This compound had a Solubility in data set [12] of 138 µg/mL (≈ 276 µM).
With `Cc1nnn(C)c1-c1ccc2c3nnc(NCCO)nc3n(C(c3ccccn3)C3CCOCC3)c2c1` (stereo not drawn) [Compound 40], the PFI in [1] is 7.15. In addition, the LipE at BRD4-BD1 [2] is given as 5.79. This compound returned a pIC50 on BRD4-BD1 [3] (setting [15]) of 7.98 ± 0.17. In [4], this compound had a Papp of 10.4 ×10⁻⁶ cm/s.
As to `COCCNc1nnc2c3cc(-c4c(C)noc4C)ccc3n(Cc3ccccc3)c2n1` [Compound 12b], in [1], the PFI amounted to 10.8. In addition, the LipE at BRD4-BD1 [2] is 2.77. Moreover, the “pIC50 ± SD” value at BRD4-BD1 [3] (BRD4-BD1, FRET binding) is given as 6.08 ± 0.34.
